The subject of this assay is AMPK. The experiment in a line: AMPK activation assay (enzyme-linked immunosorbent assay). The assay is classed as cell-based. The method in brief: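 Activator screen performed per well-known kit methods.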
`N#Cc1ccc(CN2CCC(NC(=O)c3ccc(C(=O)N4CC[C@@H](Oc5ccc(F)cc5)C4)cn3)CC2)cc1` [Compound 278, (R)-N-(1-(4-cyanobenzyl)piperidin-4-yl)-5-(3-(4-fluorophenoxy)pyrrolidine-1-carbonyl)picolinamide]: the concentration for a half-maximal effect (EC50) was < 500 nM. Turning to `N#Cc1ccc(CN2CCC(NC(=O)c3ccc(N4CCC(Oc5ccc(C(F)(F)F)cc5)CC4)cn3)CC2)cc1` [Compound 301, N-(1-(4-cyanobenzyl)piperidin-4-yl)-5-(4-(4-(trifluoromethyl)phenoxy)piperidin-1-yl)picolinamide], the EC50 is < 500 nM. Regarding `O=C(N[C@@H]1CCN(Cc2ccc(Cl)cc2)C[C@@H]1F)c1ccc(C(=O)N2CCN(Cc3ccc(F)cc3)CC2)cn1` (relative stereo) [Compound 127, N-(cis-1-(4-chlorobenzyl)-3-fluoropiperidin-4-yl)-5-(4-(4-fluorobenzyl)piperazine-1-carbonyl)picolinamide], the half-maximal effective concentration (EC50) is < 500 nM. The result for `N#Cc1ccc(Cn2ccc(NC(=O)c3ccc(C(=O)N4CCN(Cc5ccc(F)cc5)CC4)cn3)n2)cc1` [Compound 9, N-(1-(4-cyanobenzyl)-1H-pyrazol-3-yl)-5-(4-(4-fluorobenzyl)piperazine-1-carbonyl)picolinamide] reads < 500 nM; that for `N#Cc1ccc(CN2CCC(NC(=O)c3ccc(NC4CCN(c5ccc(F)cc5)CC4)cn3)CC2)cc1` [Compound 276, N-(1-(4-cyanobenzyl)piperidin-4-yl)-5-(1-(4-fluorophenyl)piperidin-4-ylamino)picolinamide], < 500 nM; that for `COc1ccc(OC2CCN(C(=O)c3ccc(C(=O)NC4CCN(Cc5ccc(C#N)cc5)CC4)cn3)CC2)c(NS(C)(=O)=O)c1` [Compound 389, N-(1-(4-cyanobenzyl)piperidin-4-yl)-6-(4-(4-methoxy-2-(methylsulfonamido)phenoxy)piperidine-1-carbonyl)nicotinamide], 1000 to 5000 nM. As for `COc1ccc(OC2CCN(C(=O)c3ccc(C(=O)NC4CCN(Cc5ccc(C#N)cc5)CC4)nc3)CC2)cc1` [Compound 143, N-(1-(4-cyanobenzyl)piperidin-4-yl)-5-(4-(4-methoxyphenoxy)piperidine-1-carbonyl)picolinamide], the EC50 was < 500 nM.

For the molecule `N#Cc1ccc(CN2CCc3ccc(NC(=O)c4ccc(C(=O)N5CCN(Cc6ccc(F)cc6)CC5)cn4)cc3C2)cc1` [Compound 132, N-(2-(4-cyanobenzyl)-1,2,3,4-tetrahydroisoquinolin-7-yl)-5-(4-(4-fluorobenzyl)piperazine-1-carbonyl)picolinamide], the EC50 was < 500 nM.

For `N#Cc1ccc(CN2CCC(NC(=O)c3ccc(NC4CCN(c5ccc(C#N)cc5)CC4)cn3)CC2)cc1` [Compound 267, N-(1-(4-cyanobenzyl)piperidin-4-yl)-5-(1-(4-cyanophenyl)piperidin-4-ylamino)picolinamide], the EC50 is < 500 nM. The same measure for `O=C(NC1CCN(Cc2ccc(OC(F)(F)F)cc2)CC1)c1ccc(C(=O)N2CCC(S(=O)(=O)c3ccc(F)cc3)CC2)nc1` [Compound 470, 6-(4-(4-fluorophenylsulfonyl)piperidine-1-carbonyl)-N-(1-(4-(trifluoromethoxy)benzyl)piperidin-4-yl)nicotinamide]: < 500 nM. The same measure for `N#Cc1ccc(CN2CCC(NC(=O)c3cnc(C(=O)N4CCC(Oc5ccc(C(F)(F)F)cc5)CC4)cn3)CC2)cc1` [Compound 212, N-(1-(4-cyanobenzyl)piperidin-4-yl)-5-(4-(4-(trifluoromethyl)phenoxy)piperidine-1-carbonyl)pyrazine-2-carboxamide]: < 500 nM; for `N#Cc1ccc(OC2CCN(C(=O)c3ccc(C(=O)NC4CCN(Cc5ccc(N6CCCC6)cc5)CC4)cn3)CC2)cc1` [Compound 336, 6-(4-(4-cyanophenoxy)piperidine-1-carbonyl)-N-(1-(4-(pyrrolidin-1-yl)benzyl)piperidin-4-yl)nicotinamide]: < 500 nM; for `CC(C)(c1ccc(C#N)cc1)N1CCC(NC(=O)c2ccc(C(=O)N3CCN(Cc4ccc(F)cc4)CC3)cn2)CC1` [Compound 111, N-(1-(2-(4-cyanophenyl)propan-2-yl)piperidin-4-yl)-5-(4-(4-fluorobenzyl)piperazine-1-carbonyl)picolinamide]: 1000 to 5000 nM. As to `CC(=O)c1ccc(Oc2ccc(NC(=O)c3ccc(C(=O)N4CCN(Cc5ccc(F)cc5)CC4)nc3)cn2)cc1` [Compound 477, N-(6-(4-acetylphenoxy)pyridin-3-yl)-6-(4-(4-fluorobenzyl)piperazine-1-carbonyl)nicotinamide], the concentration giving a half-maximal response (EC50) was < 500 nM. With `O=C(c1ccc(-c2ccc(OCc3ccccc3)cc2)nc1)N1CCN(Cc2ccc(F)cc2)CC1` [Compound 17, (4-(4-fluorobenzyl)piperazin-1-yl)(6-(4-(benzyloxy)phenyl)pyridin-3-yl)methanone], the 50% effective concentration (EC50) was > 10000 nM.

For `CC(=O)c1ccc(Oc2ccc(NC(=O)c3ccc(C(=O)N4CCC(Oc5ccc(S(=O)(=O)C6CC6)cc5)CC4)nc3)cn2)cc1` [Compound 486, N-(6-(4-acetylphenoxy)pyridin-3-yl)-6-(4-(4-(cyclopropylsulfonyl)phenoxy)piperidine-1-carbonyl)nicotinamide], the EC50 was < 500 nM. `O=C(NC1CCN(C(=O)c2ccccc2)CC1)c1ccc(C(=O)N2CCN(Cc3ccc(F)cc3)CC2)cn1` [Compound 8, N-(1-(benzoyl)piperidin-4-yl)-5-(4-(4-fluorobenzyl)piperazine-1-carbonyl)picolinamide]: the EC50 is < 500 nM. Take `N#Cc1ccc(CN2CCC(NC(=O)c3ccc(C(=O)N4CCN(c5ccc(S(=O)(=O)C(F)(F)F)cc5)CC4)cn3)CC2)cc1` [Compound 257, N-(1-(4-cyanobenzyl)piperidin-4-yl)-5-(4-(4-(trifluoromethylsulfonyl)phenyl)piperazine-1-carbonyl)picolinamide]: the EC50 was < 500 nM. Take `COc1ccc(OC2CCN(C(=O)c3ccc(C(=O)NC4CCN(Cc5ccc(C#N)cc5)CC4)cn3)CC2)c([N+](=O)[O-])c1` [Compound 378, N-(1-(4-cyanobenzyl)piperidin-4-yl)-6-(4-(4-methoxy-2-nitrophenoxy)piperidine-1-carbonyl)nicotinamide]: the EC50 is < 500 nM. `O=C(NC1CCN(Cc2ccccc2)CC1)c1ccc(Nc2ccc(Oc3ccccc3)cc2)cn1` [Compound 113, N-(1-benzylpiperidin-4-yl)-5-(4-phenoxyphenylamino)picolinamide]: the concentration giving a half-maximal response (EC50) lay within 1000 to 5000 nM. As for `N#Cc1ccc(CN2CCC(NC(=O)c3ccc(NC4CCN(c5ccc(Cl)cc5)CC4)cn3)CC2)cc1` [Compound 139, 5-(1-(4-chlorophenyl)piperidin-4-ylamino)-N-(1-(4-cyanobenzyl)piperidin-4-yl)picolinamide], the EC50 was < 500 nM. `O=C(c1ccc(-c2cccc(OCc3ccccc3)c2)nc1)N1CCN(Cc2ccc(F)cc2)CC1` [Compound 22, (6-(3-(benzyloxy)phenyl)pyridin-3-yl)(4-(4-fluorobenzyl)piperazin-1-yl)methanone]: the EC50 is < 500 nM. For the molecule `COc1ccc(C(=O)C2CCN(c3ccc(C(=O)NC4CCN(Cc5ccc(C#N)cc5)CC4)nc3)CC2)cc1` [Compound 302, N-(1-(4-cyanobenzyl)piperidin-4-yl)-5-(4-(4-methoxybenzoyl)piperidin-1-yl)picolinamide], the EC50 was < 500 nM. Take `N#Cc1ccc(CN2CCC(NC(=O)c3ccc(C(=O)N4CCC(c5ccc(Cl)cc5)CC4)cn3)CC2)cc1` [Compound 134, 5-(4-(4-chlorophenyl)piperidine-1-carbonyl)-N-(1-(4-cyanobenzyl)piperidin-4-yl)picolinamide]: the EC50 was < 500 nM. `O=C(Nc1ccc(N2CCOCC2)cc1)c1ccc(C(=O)N2CCN(Cc3ccc(F)cc3)CC2)cn1` [Compound 40, 5-(4-(4-fluorobenzyl)piperazine-1-carbonyl)-N-(4-morpholinophenyl)picolinamide] registered a 50% effective concentration (EC50) of 1000 to 5000 nM. Turning to `N#Cc1ccc(CN2CCC(NC(=O)c3ccc(C(=O)N4CCC(C(=O)c5ccc(C#N)cc5)CC4)cn3)CC2)cc1` [Compound 369, 5-(4-(4-cyanobenzoyl)piperidine-1-carbonyl)-N-(1-(4-cyanobenzyl)piperidin-4-yl)picolinamide], the half-maximal effective concentration (EC50) was < 500 nM. The molecule `N#Cc1ccc(O[C@H]2CC[C@H](NC(=O)c3ccc(C(=O)N4CCC(Oc5ccc(F)cc5)CC4)cn3)CC2)cc1` [Compound 169, N-((trans)-4-(4-cyanophenoxy)cyclohexyl)-5-(4-(4-fluorophenoxy)piperidine-1-carbonyl)picolinamide] came in with an EC50 of 500 to 1000 nM. Turning to `COc1ccc(CN2CCC(NC(=O)c3ccc(C(=O)N4CCC(Oc5ccc(S(C)(=O)=O)cc5)CC4)cn3)CC2)cc1` [Compound 202, N-(1-(4-methoxybenzyl)piperidin-4-yl)-5-(4-(4-(methylsulfonyl)phenoxy)piperidine-1-carbonyl)picolinamide], the half-maximal effective concentration (EC50) was < 500 nM. In the case of `O=C(Nc1ccc(Oc2ccccc2)cc1)c1ccc(C(=O)N2CCN(Cc3ccc(F)cc3)CC2)cn1` [Compound 16, 5-(4-(4-fluorobenzyl)piperazine-1-carbonyl)-N-(4-phenoxyphenyl)picolinamide], the concentration for a half-maximal effect (EC50) is < 500 nM.

`N#Cc1ccc(OC2CCN(C(=O)c3ccc(C(=O)NC4CCN(Cc5ccc(F)cc5)CC4)cn3)CC2)cc1` [Compound 320, 6-(4-(4-cyanophenoxy)piperidine-1-carbonyl)-N-(1-(4-fluorobenzyl)piperidin-4-yl)nicotinamide]: the 50% effective concentration (EC50) was < 500 nM. `CS(=O)(=O)c1ccc(OC2CCN(C(=O)c3ccc(C(=O)Nc4ccc(Oc5ccc(C#N)cc5)nc4)cn3)CC2)cc1` [Compound 459, N-(6-(4-cyanophenoxy)pyridin-3-yl)-6-(4-(4-(methylsulfonyl)phenoxy)piperidine-1-carbonyl)nicotinamide]: the concentration giving a half-maximal response (EC50) is < 500 nM. The result for `CS(=O)(=O)Nc1ccc(OC2CCN(C(=O)c3ccc(C(=O)NC4CCN(Cc5ccc(C#N)cc5)CC4)cn3)CC2)cc1` [Compound 367, N-(1-(4-cyanobenzyl)piperidin-4-yl)-6-(4-(4-(methylsulfonamido)phenoxy)piperidine-1-carbonyl)nicotinamide] reads > 10000 nM.

By EC50 is commonly meant the concentration needed to bring the measured effect to its halfway point.
